The target of experiment [1] is T1, AHR (Homo sapiens, UniProt P35869).
T1 sequence (P35869 11-848): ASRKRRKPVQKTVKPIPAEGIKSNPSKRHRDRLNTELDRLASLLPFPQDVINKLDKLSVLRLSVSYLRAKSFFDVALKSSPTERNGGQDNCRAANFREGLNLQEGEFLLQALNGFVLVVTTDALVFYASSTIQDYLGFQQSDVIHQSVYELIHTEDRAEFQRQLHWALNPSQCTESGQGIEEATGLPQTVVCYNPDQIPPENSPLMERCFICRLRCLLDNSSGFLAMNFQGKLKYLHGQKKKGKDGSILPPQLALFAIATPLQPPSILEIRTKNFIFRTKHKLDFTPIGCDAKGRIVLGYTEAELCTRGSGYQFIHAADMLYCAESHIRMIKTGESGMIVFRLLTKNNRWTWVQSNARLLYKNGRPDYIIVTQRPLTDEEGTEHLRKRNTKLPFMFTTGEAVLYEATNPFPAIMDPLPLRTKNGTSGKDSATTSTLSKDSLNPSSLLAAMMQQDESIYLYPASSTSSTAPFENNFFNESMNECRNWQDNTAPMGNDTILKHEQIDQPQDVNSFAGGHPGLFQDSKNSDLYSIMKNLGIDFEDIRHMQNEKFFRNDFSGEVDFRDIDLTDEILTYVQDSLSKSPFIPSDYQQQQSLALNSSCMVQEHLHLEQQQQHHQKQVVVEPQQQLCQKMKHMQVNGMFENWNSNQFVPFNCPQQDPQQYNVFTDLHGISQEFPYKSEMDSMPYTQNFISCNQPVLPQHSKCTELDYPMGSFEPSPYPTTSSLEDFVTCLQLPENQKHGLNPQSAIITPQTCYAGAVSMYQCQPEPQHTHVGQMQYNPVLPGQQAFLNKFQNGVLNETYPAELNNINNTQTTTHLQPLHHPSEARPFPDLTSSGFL
Kind of experiment: In vitro assay 2: agonism in human cell line (transactivation assay, U87 cells, DRE firefly luciferase reporter). Particulars: no kynurenic acid, 20 hours, read-out: Assay 2: AHR-luc Hum Agonism IC50. More on the design: host or cells: U87 glioblastoma cells, stably transfected with DRE firefly luciferase and renilla reporter constructs. It counts as cell-based. In a few lines:
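U87 glioblastoma cells with endogenous AHR, stably carrying DRE-driven firefly luciferase and constitutive renilla reporters. 300 uM kynurenic acid served as positive activation control; data normalized to positive and negative controls.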
(In general: Reporter assays use an easily measured gene product as a stand-in for the process of interest.)

Experiment [2] has as its target T1, AHR. The experiment in a line: In vitro assay 1: antagonism in human cell line (transactivation assay, U87 cells prestimulated with kynurenic acid, DRE firefly luciferase reporter). Particulars: 150 uM kynurenic acid, 20 hours, read-out: Assay 1: AHR-luc Hum Antagonism IC50. It is filed as cell-based. More on the design: host or cells: U87 glioblastoma cells, stably transfected with DRE firefly luciferase and renilla reporter constructs. In a few lines: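 U87 glioblastoma cells with endogenous AHR, stably carrying a DRE-driven firefly luciferase reporter and a constitutive renilla reporter. Cells prestimulated with the AHR agonist kynurenic acid before compound addition; data normalized to positive and negative controls.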

SMILES strings stand for the structures.

The IC50 is the point on the concentration scale where inhibition reaches its midpoint. For the compound `O=C(N[C@@H]1COC[C@@H]1O)c1cc(-c2ccc(C(F)F)cc2)nn(-c2cccnc2)c1=O` (relative stereo) [Example 323, 6-[4-(Difluoromethyl)phenyl]-N-[(cis)-4-hydroxy-tetrahydrofuran-3-yl]-3-oxo-2-(pyridin-3-yl)-2,3-dihydropyridazine-4-carboxamide], the IC50 in experiment [1] is above 20000 nM; in experiment [2], 60.4 nM.
Taken in the same sequence, the figures for `O=C(N[C@H]1CCC[C@H]1O)c1cc(-c2ccc(Cl)cc2)nn(-c2cncc(F)c2)c1=O` [Example 129, 6-(4-Chlorophenyl)-2-(5-fluoropyridin-3-yl)-N-[(1S,2R)-2-hydroxycyclopentyl]-3-oxo-2,3-dihydropyridazine-4-carboxamide] were above 20000 nM and 5.53 nM.
On to `O=C(NC[C@H](O)C(F)(F)F)c1cc(-c2ccc(Cl)cc2)nn(-c2cncc(F)c2)c1=O` [Example 128, 6-(4-Chlorophenyl)-2-(5-fluoropyridin-3-yl)-3-oxo-N-[(2S)-3,3,3-trifluoro-2-hydroxypropyl]-2,3-dihydropyridazine-4-carboxamide], for which the figures for the 50% inhibitory concentration (IC50) in experiment [1] and in experiment [2] were above 20000 nM and 5.05 nM, respectively.
On to `Cn1cc(-n2nc(-c3ccc(C(F)(F)F)cc3)cc(C(=O)N[C@@H]3COC[C@@H]3O)c2=O)cn1` (relative stereo) [Example 215, N-cis-4- Hydroxytetrahyd rofuran-3-yl-2-(1-methyl-1H-pyrazol-4-yl)-3-oxo-6-[4-(trifluoromethyl)phenyl]-2,3-dihydropyridazine-4-carboxamide], for which the IC50 in experiment [1] was above 20000 nM; in experiment [2], 2.21 nM.
On to `Cn1cc(-n2nc(-c3ccc(CF)cc3)cc(C(=O)NC[C@H](O)C(F)(F)F)c2=O)cn1` [Example 283, 6-[4-(Fluoromethyl)phenyl]-2-(1-methyl-1H-pyrazol-4-yl)-3-oxo-N-[(2S)-3,3,3-trifluoro-2-hydroxypropyl]-2,3-dihydropyridazine-4-carboxamide], for which the IC50 is above 20000 nM in experiment [1] and 430 nM in experiment [2].
Take `O=C(N[C@H](CO)C1CC1)c1cc(-c2ccc(C(F)(F)F)cc2)nn(-c2cnsc2)c1=O` [Example 207, N-[(1S)-1-Cyclopropyl-2-hydroxyethyl]-3-oxo-2-(1,2-thiazol-4-yl)-6-[4-(trifluoromethyl)phenyl]-2,3-dihydropyridazine-4-carboxamide]: the IC50 was above 20000 nM in experiment [1] and 1.21 nM in experiment [2].
For the compound `O=C(NCC1(O)CC1)c1cc(-c2ccc(C(F)(F)F)cc2)nn(-c2cccnc2)c1=O` [Example 188, N-[(1-Hydroxycyclopropyl)methyl]-3-oxo-2-(pyridin-3-yl)-6-[4-(trifluoromethyl)phenyl]-2,3-dihydropyridazine-4-carboxamide], the IC50 was above 20000 nM in experiment [1] and 12.5 nM in experiment [2].
On to `C[C@H](NC(=O)c1cc(-c2ccc(C(F)(F)F)nc2)nn(-c2cnsc2)c1=O)C(C)(C)O` [Example 233, N-[(2S)-3-Hydroxy-3-methylbutan-2-yl]-3-oxo-2-(1,2-thiazol-4-yl)-6-[6-(trifluoromethyl)pyridin-3-yl]-2,3-dihydropyridazine-4-carboxamide], for which the IC50 amounted to 17200 nM in experiment [1] and 8.23 nM in experiment [2].
The corresponding values for `O=C(N[C@@H]1CC[C@@H]1O)c1cc(-c2ccc(Cl)cc2)nn(-c2cccnc2)c1=O` (single isomer, unassigned) [Example 281, (−)-6-(4-Chlorophenyl)-N-cis-2-hydroxycyclobutyl-3-oxo-2-(pyridin-3-yl)-2,3-dihydropyridazine-4-carboxamide] are above 20000 nM and 261 nM.
The corresponding values for `O=C(N[C@H](CO)C1CC1)c1cc(-c2ccc(Cl)cc2)nn(-c2cncc(F)c2)c1=O` [Example 259, 6-(4-Chlorophenyl)-N-[(1S)-1-cyclopropyl-2-hydroxyethyl]-2-(5-fluoropyridin-3-yl)-3-oxo-2,3-dihydropyridazine-4-carboxamide] are above 20000 nM and 28.1 nM.
Taken in the same sequence, the figures for `C[C@H](NC(=O)c1cc(-c2ccc(C(F)(F)F)cc2)nn(-c2cnn(C(F)F)c2)c1=O)C(C)(C)O` [Example 228, 2-[1-(Difluoromethyl)-1H-pyrazol-4-yl]-N-[(2S)-3-hydroxy-3-methylbutan-2-yl]-3-oxo-6-[4-(trifluoromethyl)phenyl]-2,3-dihydropyridazine-4-carboxamide] were above 20000 nM and 13.3 nM.
For the compound `CC(C)(O)CNC(=O)c1cc(-c2ccc(Cl)cc2)nn(-c2cnsc2)c1=O` [Example 222, 6-(4-Chlorophenyl)-N-(2-hydroxy-2-methylpropyl)-3-oxo-2-(1,2-thiazol-4-yl)-2,3-dihydropyridazine-4-carboxamide], the results for the IC50 in experiment [1] and in experiment [2] were above 20000 nM and 4.27 nM, respectively.
Regarding `CC(C)(O)CNC(=O)c1cc(-c2ccc(Cl)cc2)nn(-c2cncnc2)c1=O` [Example 277, 6-(4-Chlorophenyl)-N-(2-hydroxy-2-methylpropyl)-3-oxo-2-(pyrimidin-5-yl)-2,3-dihydropyridazine-4-carboxamide], the IC50 in experiment [1] is above 20000 nM; in experiment [2] it was 139 nM.
Taken in the same sequence, the figures for `C[C@@H](CO)NC(=O)c1cc(-c2ccc(Cl)cc2)nn(-c2ccnnc2)c1=O` [Example 177, 3-(4-Chlorophenyl)-N-[(2S)-1-hydroxypropan-2-yl]-6-oxo-6H-1,4′-bipyridazine-5-carboxamide] were above 20000 nM and 465 nM.
For `Cc1cc(-n2nc(-c3ccc(Cl)cc3)cc(C(=O)NC[C@H](O)C(F)(F)F)c2=O)cs1` [Example 225, 6-(4-Chlorophenyl)-2-(5-methyl-3-thienyl)-3-oxo-N-[(2S)-3,3,3-trifluoro-2-hydroxypropyl]-2,3-dihydropyridazine-4-carboxamide], the IC50 was above 20000 nM in experiment [1] and 5.04 nM in experiment [2].
Taken in the same sequence, the figures for `C[C@]1(O)CCC[C@H]1NC(=O)c1cc(-c2ccc(OC(F)(F)F)cc2)nn(-c2cccnc2)c1=O` (single isomer, unassigned) [Example 329, N-[(cis)-2-hydroxy-2-methylcyclopentyl]-3-oxo-2-(pyridin-3-yl)-6-[4-(trifluoromethoxy)phenyl]-2,3-dihydropyridazine-4-carboxamide] were above 20000 nM and 29.4 nM.
As for `O=C(N[C@H](CO)CF)c1cc(-c2ccc(Cl)cc2)nn(-c2cnsc2)c1=O` [Example 201, 6-(4-Chlorophenyl)-N-[(2R)-1-fluoro-3-hydroxypropan-2-yl]-3-oxo-2-(1,2-thiazol-4-yl)-2,3-dihydropyridazine-4-carboxamide], the values for the IC50 in experiment [1] and in experiment [2] were above 20000 nM and 0.823 nM, respectively.
Taken in the same sequence, the figures for `O=C(N[C@@H]1COC[C@@H]1O)c1cc(-c2ccc(C(F)(F)F)cc2)nn(-c2cccnc2)c1=O` (racemic) [Example 107, N-[(3RS,4RS)-4-Hydroxytetrahydrofuran-3-yl]-3-oxo-2-(pyridin-3-yl)-6-[4-(trifluoromethyl)phenyl]-2,3-dihydropyridazine-4-carboxamide] were above 20000 nM and 12.3 nM.
Regarding `C[C@@H](CO)NC(=O)c1cc(-c2ccc(OC(F)F)cc2)nn(-c2cccnc2)c1=O` [Example 332, 6-[4-(Difluoromethoxy)phenyl]-N-[(2S)-1-hydroxypropan-2-yl]-3-oxo-2-(pyridin-3-yl)-2,3-dihydropyridazine-4-carboxamide], the results for the IC50 in experiment [1] and in experiment [2] were above 20000 nM and 94.5 nM, respectively.
Taken in the same sequence, the figures for `O=C(NC(CO)C1CC1)c1cc(-c2ccc(Cl)cc2)nn(-c2cncc(F)c2)c1=O` (racemic) [Example 97, 6-(4-Chlorophenyl)-N-[(1RS)-1-cyclopropyl-2-hydroxyethyl]-2-(5-fluoropyridin-3-yl)-3-oxo-2,3-dihydropyridazine-4-carboxamide] were above 20000 nM and 7.06 nM.
The corresponding values for `CC(C)(O)CNC(=O)c1cc(-c2ccc(CF)cc2)nn(-c2cccnc2)c1=O` [Example 286, 6-[4-(Fluoromethyl)phenyl]-N-(2-hydroxy-2-methylpropyl)-3-oxo-2-(pyridin-3-yl)-2,3-dihydropyridazine-4-carboxamide] are above 20000 nM and 672 nM.

These data come from US12522594B2, “2-heteroaryl-3-oxo-2,3-dihydropyridazine-4-carboxamides for the treatment of cancer” (Deutsches Krebsforschungszentrum, priority 2017, dated 2026).
